Source: US7829662B2, “Method of treating apoptosis and compositions thereof” (Dana Farber Cancer Institute, Inc., priority 2001, dated 2010)
Entries after “also recorded” stand apart in the source; their conditions may differ. Peptide text beside a SMILES is read from it. * marks the point of attachment. Cbz = O=C(OCc1ccccc1)*; CH2F = FC*

Tests used:
mitochondria [1] = test: Cytochrome c release from isolated liver mitochondria (immunoblot densitometry or ELISA); assay type: biochemical, Balb/cJ mice
Method: Mitochondria were isolated from liver of Balb/cJ mice by standard differential centrifugation, and resuspended in isolation buffer (IB) (0.2 M sucrose, 10 mM Tris-MOPS pH 7.4, 0.1 mM EGTA-Tris, 0.1% delipidated BSA).
At the indicated time, mitochondria were pelleted by centrifugation at 12000×g at 4° C. for 3 min, and resuspended in the same volume of EB. Cytochrome c release was determined either by densitometry (Stratagene Eagle Eye II, BioRad) of immunoblots, or by rat/mouse specific ELISA performed on mitochondrial pellet and supernatant diluted 1:20 in PBS containing 0.5% Triton X-100 (R&D systems, MN). Cytochrome c is reported as the percentage of the supernatant over the total (pellet plus supernatant).
For SDS-PAGE, 20 μg of mitochondrial protein was loaded in each lane of a 12% NuPAGE (NoVex, CA) gel. After separation, proteins were transferred onto PVDF membranes (Immobilon-P, Millipore, Calif.) and membranes were probed as indicated with the following primary antibodies: anti-cytochrome c (Pharmingen, CA, 1:1000); anti-BID (1:1500); anti-BAK (Calbiochem, CA, 1:1000). HRPO-conjugated secondary antibodies (CalTag, CA, 1:2000) were visualized by chemiluminescence (Amersham, N.J.).
Mitochondria were incubated with increasing amounts of digitonin to assess how much cytochrome c was released from IMS by the selective solubilization of the OM (Hoppel and Cooper, 107, 367-375, 1968). To monitor interaction of digitonin with the […], uncoupled respiration in the presence of excess exogenous cytochrome c was assessed. Specifically 0.5 mg/ml mitochondria was incubated in EB with the indicated concentration of digitonin. After 5 minutes, mitochondria were centrifuged and cytochrome c content in the resulting pellet and supernatant were determined as described. Uncoupled JO2, uncoupled respiratory rate was recorded in parallel experiments. After 5 minutes of incubation with the indicated concentration of digitonin, mitochondria were treated with 400 pmol CCCP×mg protein-1 in the presence of 10 nmol cytochrome c×mg protein.

wt mitochondria [2] = test: Cytochrome b5-dependent NADH oxidation assay; assay type: biochemical, Balb/cJ mice
Method: (d), mitochondria were preincubated for 2 min with 800 pmol CsA×mg protein^−1. (a), no additions. After 15 min, respiratory chain inhibitors were added and after another 2 minutes NADH fluorescence reading started. Arrow, 20 nmol NADH×mg protein^−1. In (e), 200 nmol mersalyl×mg protein was added 1 min before NADH.
In the cytochrome b5-dependent NADH oxidation assay, 1 mg/ml mitochondria were incubated in EB and treated as indicated. 400 pmol CCCP, 2 nmol rotenone and 1 nmol antimycin A×mg protein^−1 were added after the time indicated and the reaction transferred to a cuvette. After 2 min, 10 μM NADH was added and its oxidation monitored as the decrease in NADH fluorescence in a LS50B spectrofluorimeter (Perkin Elmer) set with λex=366 nm and λem=455 nm, with 5 nm slits.

Wt and DKO MEFs = test: TEM morphology of mitochondria in cells after death stimuli; assay type: cell-based; settings: 12 hrs after treatment; 2 μM thapsigargin, 2 μg/ml brefeldin A, 1 μg/ml tunicamycin
Method: For apoptosis induction, MEFs were plated in 24-well plates at a density of 10^4 cells/well and grown for 24 hrs (Wei et al, 2001). Apoptosis was initiated by 2 μM thapsigargin, 2 μg/ml brefeldin A, 1 μg/ml tunicamycin or by 5 hrs of heat shock (43° C. in a humidified atmosphere of 95% air 5% CO2). Apoptosis was detected by flow cytometric detection of annexin V staining (BD Pharmingen) 24 hrs after the induction of cell death.
Wt and DKO MEFs were treated where indicated with brefeldin A or heat shock. After 12 hrs cells were fixed and imaged. Bar, 200 nm. The insets show 2× magnification of the boxed mitochondria. […] Wt and DKO MEFs were treated with the indicated death stimulus and after 12 hrs cells were fixed, stained and TEMs collected. Morphometric analysis was conducted.

mitochondria [3] = test: Adenylate kinase (AK) release from mitochondria; assay type: biochemical, Balb/cJ mice; settings: preincubation: 800 pmol CsA × mg protein^−1 or 0.1 μg × mg protein^−1 anti-BAK Ab
Method: AK release was determined similar to that described for cytochrome c release. AK was quantified measuring its enzymatic activity by assessing the rate of NADH oxidation at 366 nm using a Beckman DU-10 spectrophotometer. 10 μl of the supernatant or pellet were added to a reaction mixture containing 0.5 mM phosphoenolpyruvate, ATP, AMP, 1 mM NADH, and 60 units of pyruvate kinase and lactate dehydrogenase, in 130 mM KCl, 6 mM MgSO4 and 100 mM Tris-Cl. Final volume 0.1 ml, pH 7.4, 25° C. AK release is reported (as described for cytochrome c) as the percentage of the supernatant over the total (pellet plus supernatant).

mitochondria [4] = test: Mitochondrial swelling by side scatter at 545 nm; assay type: biochemical, Balb/cJ mice; settings: 400 μM Ca^2+, positive control
Method: tBID was evaluated to determine if it causes any swelling or depolarization that might reflect an opening of the PTP. Swelling of 0.5 mg/ml mitochondria incubated in EB was monitored by changes in side scatter at 545±2.5 nm using LS-50B spectrofluorimeter equipped with magnetic stirring at 25° C. Membrane potential changes of 0.5 mg/ml mitochondria incubated in experimental buffer were monitored from the dequenching of a 0.3 μM Rhodamine 123 (Molecular Probes, OR) solution in a LS-50B spectrofluorimeter at 25° C., using excitation and emission wavelengths set at 503±2.5 nm and 525±5 nm, respectively.
To determine if the BID α6 14mer (SEQ ID NO:1) induced mitochondrial swelling or release of cytochrome c across the mitochondrial outer membrane, mitochondria at 1 mg/ml were incubated in experimental buffer and, where indicated, 20 μM Ca^2+ and 10 μM 14mer were added. Where noted, mitochondria were preincubated with CsA. […] Mitochondria were incubated with 10 μM 14mer in the presence or in the absence of 1 μM CsA. At the indicated time in minutes, mitochondria were pelleted by centrifugation and cytochrome c in the pellet and in the supernatant was determined.

wt mitochondria [5] = test: Ascorbate/TMPD-driven respiration assay; assay type: biochemical, Balb/cJ mice; settings: 200 nmol Ca^2+ × mg protein^−1
Method: Symbols used are detailed in the legend. […] (a), no additions. […] Arrow, 6 mM ascorbate-Tris and 300 μM TMPD were added. Assays were developed to assess the amount of cytochrome c freely available in the IMS (FIGS. 3A, B). […] After the indicated time, 400 pmol CCCP and 1 nmol antimycin A×mg protein^−1 were added, and the reaction transferred to a Clark type oxygen electrode chamber. Final volume was 1 ml, 25° C. After 2 min, 6 mM ascorbate was added, followed after a further 3 min by 300 μM TMPD. The ascorbate-driven O2 consumption rate over the total TMPD-driven rate is plotted as a percentage of the ratio in the untreated mitochondria.

[6] = system: calcein loaded mitochondria; test: Release of matrix-entrapped calcein (transient PTP opening); assay type: biochemical, Balb/cJ mice; settings: preincubated 3 min with 200 nmol/mg suramin; 320 pmol/mg tBID, 30 min
Method: To assess calcein release, mitochondria suspended in IB without BSA were loaded with 10 nmol×mg protein^−1 calcein-AM (Molecular Probes, Eugene, Oreg.) for 20 mins at room temperature in the dark. Following two washes in IB, the calcein loaded mitochondria were resuspended in IB at a final concentration of 10 mg/ml. 0.5 mg/ml calcein loaded mitochondria were incubated in EB and treated as described. After the indicated time, mitochondria were pelleted. Calcein was measured in an LS-50B spectrofluorimeter (Perkin Elmer) with excitation and emission wavelengths set at 488±2.5 nm and 542±2.5 nm, respectively.
After 30 min mitochondria were spun at 14000 g for 3 min at 4 C and the calcein content in the pellet and in the supernatant was determined. […] To determine if a BID α6 mutation variant, BID α6 mutein (SEQ ID NO:7), would inhibit cytochrome c release, His-tag p22 wt BID and the BID α6 mutein were expressed, purified on a Ni^2+ column, and cleaved with caspase 8.
Mitochondria were loaded with calcein and treated with 10 μM BID α6 14mer. Where noted, mitochondria were pretreated with 1 μM CsA. At the indicated time, mitochondria were pelleted by centrifugation and calcein in the pellet and in the supernatant was determined.

## NH2-XMLXXXXLLAAAVA-COOH [BID α6 mutein, BID α6 mutation variant where two lysine residues were changed to alanine residues; p7/p15 caspase cleaved]
Mitochondria [1]; 1.6 pmol p7/p15 caspase cleaved BID × mg protein^−1
  cytochrome c released from mitochondria: ~20%
Mitochondria [1]; 1.6 pmol p7/p15 caspase cleaved BID × mg protein^−1, compared with wt p7/p15 BID
  cytochrome c release from mitochondria: impaired release of cytochrome c; also recorded: does not completely release cytochrome c
Wt mitochondria [2]; BID α6 mutein compared to wt
  cytochrome c mobilization (cytochrome b5-dependent NADH oxidation): cytochrome c had not been mobilized; also recorded: fails to mobilize cytochrome c

## tunicamycin
Wt and DKO MEFs
  mitochondrial morphology in cells: frequent mitochondria with Class II morphology

## C/C=C(/C)C(=O)O[C@H]1C(C)=C2[C@H]([C@@H]1OC(=O)CCCCCCC)[C@@](C)(OC(C)=O)C[C@H](OC(=O)CCC)[C@@]1(O)[C@H]2OC(=O)[C@@]1(C)O [thapsigargin]
Wt and DKO MEFs
  mitochondrial morphology in cells: frequent mitochondria with Class II morphology

## COC(=O)C[C@H](NC(=O)[C@H](C)NC(=O)[C@@H](NC(=O)OCc1ccccc1)C(C)C)C(=O)CF [zVAD-fmk] (Cbz-Val-Ala-Asp(OMe)-CH2F)
Mitochondria [1]; preincubation: 800 pmol CsA × mg protein^−1 or 0.1 μg × mg protein^−1 anti-BAK Ab
  effect on tBID induced cytochrome c release: Neither anti-BCL-XL antibody nor the broad specificity caspase inhibitor zVAD-fmk had any effect
Mitochondria [3]
  effect on tBID induced AK release: Neither anti-BCL-XL antibody nor the broad specificity caspase inhibitor zVAD-fmk had any effect

## COC(CNC(=O)c1ccccc1OCC(=O)O)[CH2][Hg][OH] (centres unmarked) [mersalyl]
Wt mitochondria [2]; 200 nmol mersalyl × mg protein added 1 min before NADH
  effect on increases in NADH oxidation: totally inhibited

## C[C@H]1CCC/C=C/[C@@H]2C[C@H](O)C[C@H]2[C@H](O)/C=C/C(=O)O1 [brefeldin A]
Wt and DKO MEFs
  mitochondrial morphology in cells: frequent mitochondria with Class II morphology

## [Ca+2] [Ca^2+]
Mitochondria [4]
  mitochondrial swelling: maximal swelling
Wt mitochondria [5]
  ascorbate-driven respiration: increases the ascorbate-driven respiration
Wt mitochondria [2]; 200 nmol Ca^2+ × mg protein^−1
  cytochrome b5-dependent NADH oxidation rate: increased the rate of NADH oxidation

## Cc1ccc(C(=O)Nc2ccc(S(=O)(=O)O)c3cc(S(=O)(=O)O)cc(S(=O)(=O)O)c23)cc1NC(=O)c1cccc(NC(=O)Nc2cccc(C(=O)Nc3cc(C(=O)Nc4ccc(S(=O)(=O)O)c5cc(S(=O)(=O)O)cc(S(=O)(=O)O)c45)ccc3C)c2)c1 [suramin]
[6]
  effect on tBID-induced calcein release (transient permeability transition): blocked tBID-induced transient permeability transition; also recorded: specifically inhibits calcein release induced by tBID

B1: myristoylated p7/p15 BID complex: Wt p22 BID cleaved with recombinant caspase 8 into the active p7/p15 BID complex (protein)
p7: MDSEVSNGSGLGAKHITDLLVFGFLQSSGCTRQELEVLGRELPVQAYWEADLEDELQTD
p15: GSQASRSFNQGRIEPDSESQEEIIHNIARHLAQIGDEMDHNIQPTLVRQLAAQFMNGSLSEEDKRNCLAKALDEVKTAFPRDMENDKAMLIMTMLLAKKVASHAPSLLRDVFHTTVNFINQNLFSYVRNLVRNEMD
modifications: left off: small tags and cut ends
Mitochondria [1]; 0.32 pmol × mg protein^−1
  cytochrome c release from mitochondria: Complete cytochrome c release
